In PubChem BioAssay AID330 (DTP/NCI, 2004):
Values joined by “and” are separate entries in the source; they are usually repeats but may differ in a detail not shown here. Equal values may be shown once. Toxic doses and inconclusive results are not listed.

Test system: P388 leukemia ip, CD2F1 mice, survival T/C
Assay: NCI In Vivo Anticancer Drug Screen. Data for tumor model P388 Leukemia (intraperitoneal) in CD2F1 (CDF1) mice
Details: endpoint: median survival time, higher = longer survival
Method in brief: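 Mice carrying the transplanted tumor received test compound or vehicle. Survival was recorded in each group, and the value is the treated-group measurement divided by that of the vehicle-treated control group.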

[1] = dose: 100.0 mg/kg/injection, schedule: Q04DX002 (ip), vehicle: saline with Tween-80
[2] = dose: 200.0 mg/kg/injection, schedule: Q04DX002 (ip), vehicle: saline with Tween-80
[3] = dose: 50.0 mg/kg/injection, schedule: Q01DX005 (ip), vehicle: saline
[4] = dose: 50.0 mg/kg/injection, schedule: Q01DX005 (ip), vehicle: Klucel (hydroxypropylcellulose) (HPC)
[5] = dose: 100.0 mg/kg/injection, schedule: Q01DX005 (ip), vehicle: Klucel (hydroxypropylcellulose) (HPC)
[6] = dose: 200.0 mg/kg/injection, schedule: Q01DX005 (ip), vehicle: Klucel (hydroxypropylcellulose) (HPC)
[7] = dose: 50.0 mg/kg/injection, schedule: Q01DX005 (ip), vehicle: saline with Tween-80
[8] = dose: 100.0 mg/kg/injection, schedule: Q01DX005 (ip), vehicle: saline with Tween-80
[9] = dose: 200.0 mg/kg/injection, schedule: Q01DX005 (ip), vehicle: saline with Tween-80
[10] = dose: 50.0 mg/kg/injection, schedule: Q01DX009 (ip), vehicle: saline
[11] = dose: 100.0 mg/kg/injection, schedule: Q01DX009 (ip), vehicle: saline

SMILES: CC(C)CC1C(=O)OC(C(C)C)C(=O)N(C)C(CC(C)C)C(=O)OC(C(C)C)C(=O)N(C)C(CC(C)C)C(=O)OC(C(C)C)C(=O)N(C)C(CC(C)C)C(=O)OC(C(C)C)C(=O)N1C (centres undefined)
- T/C (dose: 1.0 mg/kg/injection, schedule: Q01DX009 (ip), vehicle: saline with Tween-80): 99 % of control
- T/C (dose: 2.0 mg/kg/injection, schedule: Q01DX009 (ip), vehicle: saline with Tween-80): 90 % of control
- T/C (dose: 4.0 mg/kg/injection, schedule: Q01DX009 (ip), vehicle: saline with Tween-80): 101 % of control
- T/C (dose: 8.0 mg/kg/injection, schedule: Q01DX009 (ip), vehicle: saline with Tween-80): 101 % of control
- T/C (dose: 16.0 mg/kg/injection, schedule: Q01DX009 (ip), vehicle: saline with Tween-80): 96 % of control

SMILES: CCC1OC(=O)C1[Si](C)(C)C (centres undefined)
- T/C (dose: 100.0 mg/kg/injection, schedule: Q01DX001 (ip), vehicle: saline): 99 % of control
- T/C (dose: 200.0 mg/kg/injection, schedule: Q01DX001 (ip), vehicle: saline): 103 % of control
- T/C (dose: 400.0 mg/kg/injection, schedule: Q01DX001 (ip), vehicle: saline): 103 % of control

SMILES: O=C(N/N=C/c1cc(Cl)ccc1O)C(=O)N/N=C/c1cc(Cl)ccc1O
- T/C (dose: 50.0 mg/kg/injection, schedule: Q01DX009 (ip), vehicle: water): 92 % of control
- T/C (dose: 100.0 mg/kg/injection, schedule: Q01DX009 (ip), vehicle: water): 92 % of control
- T/C (dose: 200.0 mg/kg/injection, schedule: Q01DX009 (ip), vehicle: water): 100 % of control

SMILES: CC[C@H]1C[C@H]2CN(CCc3c([nH]c4ccccc34)[C@@](C(=O)OC)(c3cc4c(cc3OC)N(C=O)[C@H]3[C@@](O)(C(=O)OC)[C@H](OC(C)=O)[C@]5(CC)C=CCN6CC[C@]43[C@@H]65)C2)C1
- T/C (dose: 0.5 mg/kg/injection, schedule: Q01DX001 (ip), vehicle: water): 155 % of control
- T/C (dose: 1.0 mg/kg/injection, schedule: Q01DX001 (ip), vehicle: water): 156 % of control and 174 % of control
- T/C (dose: 2.0 mg/kg/injection, schedule: Q01DX001 (ip), vehicle: water): 180 % of control
- T/C (dose: 4.0 mg/kg/injection, schedule: Q01DX001 (ip), vehicle: water): 90 % of control

SMILES: COc1cc(C=Nc2cccc3c2NCCC3)cc(OC)c1OC
- T/C (dose: 100.0 mg/kg/injection, schedule: Q01DX001 (ip), vehicle: saline with Tween-80): 105 % of control
- T/C (dose: 200.0 mg/kg/injection, schedule: Q01DX001 (ip), vehicle: saline with Tween-80): 98 % of control
- T/C (dose: 400.0 mg/kg/injection, schedule: Q01DX001 (ip), vehicle: saline with Tween-80): 98 % of control

SMILES: CC(/C=C/c1cccc(C)c1)=N\NC(N)=O
- T/C (dose: 60.0 mg/kg/injection, schedule: Q01DX005 (ip), vehicle: Klucel (hydroxypropylcellulose) (HPC)): 107 % of control
- T/C (dose: 120.0 mg/kg/injection, schedule: Q01DX005 (ip), vehicle: Klucel (hydroxypropylcellulose) (HPC)): 104 % of control
- T/C (dose: 240.0 mg/kg/injection, schedule: Q01DX005 (ip), vehicle: Klucel (hydroxypropylcellulose) (HPC)): 115 % of control

SMILES: CNc1ccc(O)c2c1C(=O)c1ccccc1C2=O
- T/C (dose: 25.0 mg/kg/injection, schedule: Q04DX002 (ip), vehicle: saline with Tween-80): 93 % of control
- T/C (dose: 50.0 mg/kg/injection, schedule: Q04DX002 (ip), vehicle: saline with Tween-80): 92 % of control
- T/C [1]: 101 % of control
- T/C [2]: 109 % of control

SMILES: C/C=C(\C)C(=O)Nc1c(C)cccc1Cl
- T/C (dose: 100.0 mg/kg/injection, schedule: Q04DX002 (ip), vehicle: Klucel (hydroxypropylcellulose) (HPC)): 106 % of control
- T/C (dose: 200.0 mg/kg/injection, schedule: Q04DX002 (ip), vehicle: Klucel (hydroxypropylcellulose) (HPC)): 104 % of control

SMILES: CC(O)CC(O)CC1CCCO1 (centres undefined)
- T/C (dose: 12.5 mg/kg/injection, schedule: Q01DX005 (ip), vehicle: saline): 98 % of control
- T/C (dose: 25.0 mg/kg/injection, schedule: Q01DX005 (ip), vehicle: saline): 97 % of control
- T/C [3]: 98 % of control and 88 % of control

SMILES: NC(=S)N/N=C\c1ccc(/C=N/NC(N)=S)cc1
- T/C (dose: 100.0 mg/kg/injection, schedule: Q04DX003 (ip), vehicle: saline with Tween-80): 91 % of control
- T/C (dose: 400.0 mg/kg/injection, schedule: Q04DX003 (ip), vehicle: saline with Tween-80): 86 % of control

SMILES: O=C(Nc1ccc2oc3ccc(Cl)cc3c(=O)c2c1)c1ccc(Cl)cc1Cl
- T/C [4]: 97 % of control
- T/C [5]: 96 % of control
- T/C [6]: 96 % of control

SMILES: C/C=C/C(/C=C/C)(C(=O)OCCN(CC)CC)C(/C=C/C)(/C=C/C)C(=O)OCCN(CC)CC
- T/C [3]: 101 % of control
- T/C (dose: 100.0 mg/kg/injection, schedule: Q01DX005 (ip), vehicle: saline): 101 % of control
- T/C (dose: 200.0 mg/kg/injection, schedule: Q01DX005 (ip), vehicle: saline): 97 % of control

SMILES: CC12OC1C(=O)C1C3C=CC(C3)C1C2=O (centres undefined)
- T/C (dose: 75.0 mg/kg/injection, schedule: Q04DX002 (ip), vehicle: saline with Tween-80): 96 % of control
- T/C (dose: 150.0 mg/kg/injection, schedule: Q04DX002 (ip), vehicle: saline with Tween-80): 96 % of control
- T/C (dose: 300.0 mg/kg/injection, schedule: Q04DX002 (ip), vehicle: saline with Tween-80): 97 % of control

SMILES: COc1cc(NCCCCCCCNC(C)C)c2nccc(C)c2c1
- T/C (dose: 3.13 mg/kg/injection, schedule: Q01DX009 (ip), vehicle: saline): 105 % of control
- T/C (dose: 6.25 mg/kg/injection, schedule: Q01DX009 (ip), vehicle: saline): 102 % of control
- T/C (dose: 12.5 mg/kg/injection, schedule: Q01DX009 (ip), vehicle: saline): 99 % of control

SMILES: O=C(O)CCCC#C/C=C/CCCC/C=C(Br)\C=C/Br
- T/C (dose: 62.5 mg/kg/injection, schedule: Q01DX009 (ip), vehicle: olive oil, sesame oil, peanut oil): 106 % of control
- T/C (dose: 125.0 mg/kg/injection, schedule: Q01DX009 (ip), vehicle: olive oil, sesame oil, peanut oil): 96 % of control
- T/C (dose: 250.0 mg/kg/injection, schedule: Q01DX009 (ip), vehicle: olive oil, sesame oil, peanut oil): 100 % of control

SMILES: N#C/C(=N\N=C(/C#N)c1ccc(Cl)cc1)c1ccc(Cl)cc1
- T/C [7]: 97 % of control
- T/C [8]: 94 % of control
- T/C [9]: 88 % of control

SMILES: COc1ccc(/C=C2\CCN=C2c2ccccc2)cc1OC
- T/C [4]: 101 % of control
- T/C [5]: 97 % of control
- T/C [6]: 96 % of control

SMILES: CC(=O)OC1=C2OC(=O)C3(C2C=CC=C1)C1C=CC=CC13 (centres undefined)
- T/C (dose: 50.0 mg/kg/injection, schedule: Q01DX009 (ip), vehicle: saline with Tween-80): 97 % of control
- T/C (dose: 100.0 mg/kg/injection, schedule: Q01DX009 (ip), vehicle: saline with Tween-80): 97 % of control
- T/C (dose: 200.0 mg/kg/injection, schedule: Q01DX009 (ip), vehicle: saline with Tween-80): 111 % of control

SMILES: O=C(Nc1ccc(Cl)c(Cl)c1Cl)/C(Cl)=C1/Sc2ccccc2NC1=O
- T/C [7]: 108 % of control
- T/C [8]: 101 % of control
- T/C [9]: 101 % of control

SMILES: Cn1c2ccccc2c(=S)c2cc(NC(=O)CCCCC(=O)Nc3ccc4c(c3)c(=S)c3ccccc3n4C)ccc21
- T/C [7]: 110 % of control
- T/C [8]: 98 % of control
- T/C [9]: 104 % of control

SMILES: CC(=O)c1ccc2c(c1)-c1ccccc1C(=O)C2=O
- T/C (dose: 25.0 mg/kg/injection, schedule: Q01DX009 (ip), vehicle: saline): 98 % of control
- T/C [10]: 106 % of control and 110 % of control
- T/C [11]: 113 % of control and 119 % of control

SMILES: Nc1cc(-c2ccc(Cl)cc2)nn1-c1nnc2c(n1)[nH]c1ccccc12
- T/C [1]: 92 % of control
- T/C [2]: 94 % of control
- T/C (dose: 400.0 mg/kg/injection, schedule: Q04DX002 (ip), vehicle: saline with Tween-80): 99 % of control

SMILES: C=C(C)[C@H]1C[C@@H](O)[C@H]2O[C@@]2(C)C1
- T/C [10]: 91 % of control
- T/C [11]: 90 % of control
- T/C (dose: 200.0 mg/kg/injection, schedule: Q01DX009 (ip), vehicle: saline): 102 % of control

SMILES: CCOC1CSc2ccccc2C(c2ccccc2)=N1 (centres undefined)
- T/C (dose: 50.0 mg/kg/injection, schedule: Q01DX005 (ip), vehicle: Klucel + Tween-80): 107 % of control
- T/C (dose: 100.0 mg/kg/injection, schedule: Q01DX005 (ip), vehicle: Klucel + Tween-80): 93 % of control
- T/C (dose: 200.0 mg/kg/injection, schedule: Q01DX005 (ip), vehicle: Klucel + Tween-80): 89 % of control
